Values of other authors, collected in patent US20210235730A1, “FOOD PROTECTION OF FRUIT, CEREAL AND VEGETABLE AND DERIVATIVES” (Hawei Technologies Co., Ltd., priority 2018, published 2021).

Tests used:
[1] = test system: coliform microorganisms and arerobic spore-forming microorganisms; conditions: raw pork, heat-treated and pasteurised
moulds and yeasts = conditions: raw pork, heat-treated and pasteurised

Compound: N=C(N)N [guanidium]
- effect on coliform and aerobic spore-forming microorganisms [1]: not significantly influenced
- effect on growth of moulds and yeasts (moulds and yeasts): has an effect on the growth
